From US20230105212A1, “BIPHENYL DERIVATIVE INHIBITOR, PREPARATION METHOD THEREFOR AND USE THEREOF” (SHANGHAI HANSOH BIOMEDICAL CO., LTD., priority 2020, published 2023)

What was measured:
[1] = biological target: T1, PD-L1 protein on the surface of MC38-hPDL1 tumor cells (Homo sapiens, UniProt Q9NZQ7); assay: Induction of endocytosis of PD-L1 on the surface of tumor cells (flow cytometry); assay type: cell-based; conditions: 16 hours incubation; for Emax: MC38-hPDL1 cells, read-out: MC38 maximum endocytosis rate; for IC50: inducing endocytosis of PD-L1, MC38-hPDL1 cells, read-out: MC38 IC50
T1 construct: expressed in transfected cells; host or cells: MC38-hPDL1 (mouse colon cancer cells)
T1 sequence (Q9NZQ7 19-290): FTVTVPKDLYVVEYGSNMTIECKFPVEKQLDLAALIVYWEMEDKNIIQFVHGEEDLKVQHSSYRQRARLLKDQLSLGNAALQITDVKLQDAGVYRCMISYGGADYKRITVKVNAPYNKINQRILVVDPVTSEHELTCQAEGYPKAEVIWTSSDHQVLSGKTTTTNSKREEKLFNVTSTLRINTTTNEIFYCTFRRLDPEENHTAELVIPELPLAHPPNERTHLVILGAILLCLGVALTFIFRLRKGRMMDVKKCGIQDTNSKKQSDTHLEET
Description: Test Embodiment 2. Test of the Activity of Compounds of the Present Disclosure on Inducing the Endocytosis of PD-L1 Protein on the Surface of Tumor Cells
Experimental purpose: The purpose of this test embodiment was to test the activity of the compound on inducing the endocytosis of PD-L1 on the surface of tumor cells.
Experimental method: In order to test the activity of the compound on inducing the endocytosis of PD-L1, in this experiment, the activity of the compound on inducing the endocytosis of PD-L1 was tested by detecting the change degree of PD-L1 on the tumor cell surface with fluorescently labeled anti-PD-L1 antibody, and the IC50 of activity of the compound on inducing the endocytosis of PD-L1 was obtained.
The mouse colon cancer cells MC38-hPDL1 with high expression of hPD-L1 were collected, and adjusted to a suitable density and plated in a 24-well plate, and placed in a 37° C., 5% CO2 incubator to adhere overnight. Compounds were prepared into different concentrations by medium and added to a 24-well plate, and a vehicle control well was set up. After the cells were incubated in a 37° C., 5% CO2 incubator for 16 hours, the 24-well plate was taken out, and MC38-hPDL1 cells with different treatments in the plate were collected. After the cells were washed once with FACS buffer (PBS containing 0.5% BSA), and the cells were prepared to an appropriate density with FACS buffer. PE Mouse Anti-Human CD274 antibody (BD Pharmingen #557924) was added, and the cells were shaken at room temperature and incubated for 30 minutes without light, then the cells were washed twice with FACS buffer, resuspended in 100 μL of PBS, and a flow cytometer was used to detect the fluorescent signal on the cell surface, and the isotype control was set as a negative control.
The endocytosis rate of the compounds was calculated from the fluorescence signals of different treatment groups, and the compound concentration and endocytosis rate were fitted by nonlinear regression using GraphPad Prism software, and IC50 values were obtained, as shown in Table 2.

[2] = biological target: T2, human PD-1/PD-L1 binding (Homo sapiens, UniProt Q9NZQ7); assay: Inhibition of human PD-1/PD-L1 binding (TR-FRET/HTRF); conditions: TR-FRET, PD-L1-His and PD-1-Fc; read-out: PD-1/PD-L1 binding IC50
T2 construct: PD-L1-His protein (19 to 238 amino acids) (Abcam #ab167713); purchased Abcam (PD-L1-His); R&D (PD-1-Fc) ab167713; 1086-PD
T2 sequence (Q9NZQ7 19-238): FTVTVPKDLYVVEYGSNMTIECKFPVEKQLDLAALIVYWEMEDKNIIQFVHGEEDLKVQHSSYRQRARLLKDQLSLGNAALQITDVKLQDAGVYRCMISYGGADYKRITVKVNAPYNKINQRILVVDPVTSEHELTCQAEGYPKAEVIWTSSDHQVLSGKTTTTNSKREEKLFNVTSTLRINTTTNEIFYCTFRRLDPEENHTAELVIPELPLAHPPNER
Description: Test Embodiment 1: Test of Inhibitory Effect of the Compounds of the Present Disclosure on Human PD-1/PD-L1 Binding
Experimental purpose: The purpose of this test embodiment was to measure the inhibitory activity of the compounds on human PD-1/PD-L1 binding.
Experimental reagents: Binding Domain diluent buffer was purchased from Cisbio Company, Cat. No.: 62DLBDDF; MAb Anti-6HIS Eu cryptate Gold was purchased from Cisbio Company with the article number of 61HI2KLA; PAb Anti Human IgG-XL665 was purchased from Cisbio Company with the article number of 61HFCXLB; PD-L1-His protein was purchased from Abcam Company with the article number of ab167713; PD-1-Fc protein was purchased from R&D Company with the article number of 1086-PD; Detection buffer was purchased from Cisbio Company with the article number of 62SDBRDD; 384-well plate was purchased from PerkinElmer Company with the article number of 6007290.
Experimental method: In order to test the inhibitory activity of the compounds on human PD-1/PD-L1 binding, the method of time-resolved fluorescence resonance energy transfer (TR-FRET) was used in this experiment to test the inhibition of the compounds on human PD-1/PD-L1 binding, and the half inhibitory concentration IC50 of inhibitory activity of the compounds on human PD-1/PD-L1 binding was obtained.
This experiment was performed in a 384-well plate with a total reaction volume of 20 μL. Compounds were diluted to different concentrations (10 μM or 1 μM starting, 3-fold dilution, 11 doses) using assay buffer Binding Domain diluent buffer (Cisbio #62DLBDDF), then PD-L1-His protein (19 to 238 amino acids) (Abcam #ab167713) was diluted to 10 nM with assay buffer, and PD-1-Fc protein (25 to 167 amino acids) (R&D #1086-PD) was diluted to 20 nM with assay buffer; the compound, PD-L1 protein and PD-1 protein were added to a 384-well plate respectively, and the total volume was 10 μL, then centrifuged at 1000 rpm for 1 minute to mix well, and incubated for 60 minutes at room temperature. Then 10 μL of a mixed solution of MAb Anti-6HIS Eu cryptate Gold (Cisbio #61HI2KLA) and PAb Anti Human IgG-XL665 (Cisbio #61HFCXLB) diluted by HTRF Detection buffer was added to each well, and centrifuged at 1000 rpm for 1 minute to mix well. The reaction was carried out at room temperature for 3 hours or at 4° C. overnight, then a microplate reader (BioTek Synergy H1) was put into for reading; the excitation wavelength was 340 nm, and the emission wavelengths were 620 nm and 665 nm.
The ratio of fluorescence readings at 620 nm and 665 nm (665 nm/620 nm) was calculated, and the inhibition rate was calculated.

With `COc1ccnc(NCc2cnc(C(=O)Nc3cccc(-c4cccc(NC(=O)c5nc6c(n5C)CCN(C)C6)c4Cl)c3C)cc2OC)c1` [Embodiment 12, N-(2-Chloro-3′-(4-methoxy-5-(((4-methoxypyridin-2-yl)amino)methyl)picolinamido)-2′-methyl-[1,1′-biphenyl]-3-yl)-1,5-dimethyl-4,5,6,7-tetrahydro-1H-imidazo[4,5-c]pyridine-2-carboxamide] the Emax [1] was 84% and the IC50 [1] was 6.5 nM.

Work on `COc1cc(C(=O)Nc2cccc(-c3cccc(NC(=O)c4nc5c(n4C)CCN(C)C5)c3Cl)c2C)ncc1CNCc1ncccc1OC` [Embodiment 13, N-(2-Chloro-3′-(4-methoxy-5-((((3-methoxypyridin-2-yl)methyl)amino)methyl)picolinamido)-2′-methyl-[1,1′-biphenyl]-3-yl)-1,5-dimethyl-4,5,6,7-tetrahydro-1H-imidazo[4,5-c]pyridine-2-carboxamide] yielded an Emax [1] of 87% and an IC50 [1] of 6.6 nM.

Compound `COc1cc(C(=O)Nc2cccc(-c3cccc(NC(=O)c4nc5c(n4C)CCN(C)C5)c3Cl)c2C)ncc1CNCC1(F)CCOCC1` [Embodiment 19, N-(2-Chloro-3′-(5-((((4-fluorotetrahydro-2H-pyran-4-yl)methyl)amino)methyl)-4-methoxypicolinamido)-2′-methyl-[1,1′-biphenyl]-3-yl)-1,5-dimethyl-4,5,6,7-tetrahydro-1H-imidazo[4,5-c]pyridine-2-carboxamide] has an Emax [1] of 85% and an IC50 [1] of 7 nM.

`COc1cc(C(=O)Nc2cccc(-c3cccc(NC(=O)c4nc5c(n4C)CCN(C)C5)c3Cl)c2C)ncc1CN1CC[C@@H](F)C1` [Embodiment 25, (R)—N-(2-Chloro-3′-(5-((3-fluoropyrrolidin-1-yl)methyl)-4-methoxypicolinamido)-2′-methyl-[1,1′-biphenyl]-3-yl)-1,5-dimethyl-4,5,6,7-tetrahydro-1H-imidazo[4,5-c]pyridine-2-carboxamide] showed an Emax [1] of 95% and an IC50 [1] of 0.9 nM.

Work on `COc1nc(C(=O)Nc2cccc(-c3cccc(NC(=O)c4nc5c(n4C)CCN(C)C5)c3Cl)c2C)ccc1CN[C@@H](C)CO` [Embodiment 43, (S)—N-(2-Chloro-3′-(5-(((1-hydroxypropan-2-yl)amino)methyl)-6-methoxypicolinamido)-2′-methyl-[1,1′-biphenyl]-3-yl)-1,5-dimethyl-4,5,6,7-tetrahydro-1H-imidazo[4,5-c]pyridine-2-carboxamide] yielded an IC50 [2] of 4.1 nM.

`COc1cc(NCc2cnc(C(=O)Nc3cccc(-c4cccc(NC(=O)c5nc6c(n5C)CCN(C)C6)c4Cl)c3C)cc2C2CC2)ccn1` [Embodiment 44, N-(2-Chloro-3′-(4-cyclopropyl-5-(((2-methoxypyridin-4-yl)amino)methyl)picolinamido)-2′-methyl-[1,1′-biphenyl]-3-yl)-1,5-dimethyl-4,5,6,7-tetrahydro-1H-imidazo[4,5-c]pyridine-2-carboxamide] showed an Emax [1] of 88% and an IC50 [1] of 4.2 nM.

With `COc1cc(C(=O)Nc2cccc(-c3cccc(NC(=O)c4nc5c(n4C)CCN(C)C5)c3Cl)c2C)ncc1C(C)(C)O` [Embodiment 50, N-(2-Chloro-3′-(5-(2-hydroxypropan-2-yl)-4-methoxypicolinamido)-2′-methyl-[1,1′-biphenyl]-3-yl)-1,5-dimethyl-4,5,6,7-tetrahydro-1H-imidazo[4,5-c]pyridine-2-carboxamide] the IC50 [2] was 9 nM.

`COc1cc(-c2cccc(-c3cccc(NC(=O)c4nc5c(n4C)CCN(C)C5)c3Cl)c2Cl)ncc1CNC1CCOCC1` [Embodiment 57, N-(2,2′-Dichloro-3′-(4-methoxy-5-(((tetrahydro-2H-pyran-4-yl)amino)methyl)pyridin-2-yl)-[1,1′-biphenyl]-3-yl)-1,5-dimethyl-4,5,6,7-tetrahydro-1H-imidazo[4,5-c]pyridine-2-carboxamide] gave an IC50 [2] of 3 nM.

Compound `COc1cc(-c2cccc(-c3cccc(NC(=O)c4nc5c(n4C)CCN(C)C5)c3Cl)c2C)ncc1CN1CC[C@@H](F)C1` [Embodiment 60, (R)—N-(2-Chloro-3′-(5-((3-fluoropyrrolidin-1-yl)methyl)-4-methoxypyridin-2-yl)-2′-methyl-[1,1′-biphenyl]-3-yl)-1,5-dimethyl-4,5,6,7-tetrahydro-1H-imidazo[4,5-c]pyridine-2-carboxamide] has an IC50 [2] of 6.9 nM.

`COc1cc(NCc2cnc(C(=O)Nc3cccc(-c4cccc(NC(=O)c5nc6c(n5C)CCN(C(C)C)C6)c4Cl)c3C)cc2OC)ccn1` [Embodiment 70, N-(2-Chloro-3′-(4-methoxy-5-(((2-methoxypyridin-4-yl)amino)methyl)picolinamido)-2′-methyl-[1,1′-biphenyl]-3-yl)-5-isopropyl-1-methyl-4,5,6,7-tetrahydro-1H-imidazo[4,5-c]pyridine-2-carboxamide] was tested, and the Emax [1] was 81% and the IC50 [1] was 4 nM.

Compound `COc1cc(NCc2cnc(C(=O)Nc3cccc(-c4cccc(NC(=O)c5nc6c(n5C)CCN(CC5CC5)C6)c4Cl)c3Cl)cc2OC)ccn1` [Embodiment 83, 5-(Cyclopropylmethyl)-N-(2,2′-dichloro-3′-(4-methoxy-5-(((2-methoxypyridin-4-yl)amino)methyl)picolinamido)-[1,1′-biphenyl]-3-yl)-1-methyl-4,5,6,7-tetrahydro-1H-imidazo[4,5-c]pyridine-2-carboxamide] has an IC50 [2] of 2.7 nM.

In the case of `CCN1CCc2c(nc(C(=O)Nc3cccc(-c4cccc(NC(=O)c5cc(OC)c(CO)cn5)c4C)c3Cl)n2C)C1` [Embodiment 88, N-(2-Chloro-3′-(5-(hydroxymethyl)-4-methoxypicolinamido)-2′-methyl-[1,1′-biphenyl]-3-yl)-5-ethyl-1-methyl-4,5,6,7-tetrahydro-1H-imidazo[4,5-c]pyridine-2-carboxamide], the IC50 [2] is reported as 9 nM.

Work on `COc1nc(-c2cccc(-c3cccc(NC(=O)c4nc5c(n4C)CCN(C)C5)c3Cl)c2Cl)ccc1CN1CCN(C(=O)C(F)(F)F)CC1` [Embodiment 202, N-(2,2′-Dichloro-3′-(6-methoxy-5-((4-(2,2,2-trifluoroacetyl)piperazin-1-yl)methyl)pyridin-2-yl)-[1,1′-biphenyl]-3-yl)-1,5-dimethyl-4,5,6,7-tetrahydro-1H-imidazo[4,5-c]pyridine-2-carboxamide] yielded an Emax [1] of 89%.

Compound `COc1nc(-c2cccc(-c3cccc(NC(=O)c4nc5c(n4C)CCN(C)C5)c3Cl)c2Cl)ccc1CN1CCN(S(C)(=O)=O)CC1` [Embodiment 204, N-(2,2′-Dichloro-3′-(6-methoxy-5-((4-(methylsulfonyl)piperazin-1-yl)methyl)pyridin-2-yl)-[1,1′-biphenyl]-3-yl)-1,5-dimethyl-4,5,6,7-tetrahydro-1H-imidazo[4,5-c]pyridine-2-carboxamide] has an Emax [1] of 89%.
